Article PMC9377007, “An Unexpected Deuterium-Induced Metabolic Switch in Doxophylline” (ACS Medicinal Chemistry Letters, 2022)

Experiment: Levels of doxophylline metabolites in mice plasma
Assay type: in vivo
Excerpt: From an analysis of the levels of metabolites in mice plasma, it was seen that deuteration of the dioxolane ring (d4-doxophylline) triggered considerable alterations in the relative abundances of the metabolites generated. […] This is mainly related to a marked increase of the metabolic route 2, in which the electronic influence of the two oxygen atoms adjacent to the target sp^3 carbon atom greatly facilitates oxene attack and homolytic cleavage of the C–H bond.[29]
With regard to d7-doxophylline, only a semiquantitative determination was feasible because its metabolites (with the exception of theophylline) retain deuterium atoms (see the Supporting Information for structures). Indeed, the presence of deuterium lowers the signals in the electrospray ionization source, and the corresponding deuterated standards of the metabolites would have been necessary to perform an accurate quantification. Moreover, no reference standard was available for the quantification of the metabolites dm-doxophylline 9 and dh-doxophylline 10, and their relative abundances were expressed as peak areas of the corresponding accurate-mass ions.
• Comparative pharmacokinetic study
A total of 96 CD1 male mice, approximately 6 weeks old and with a body weight of approximately 30 g, were purchased from Envigo RMS srl, (San Pietro al Natisone, UD, Italy). […]
Protocol for drug administration and blood sampling.
Blood samples were collected under light isoflurane anaesthesia from the sublingual vein at the following time points (n=3): pre-dose and 5, 15, 30 minutes, 1, 2, 4, 8 and 24 hours after i.v. dosing (20 mg/Kg, dose volume 5 mL/Kg) and pre-dose and 15, 30 minutes, 1, 2, 4, 8 and 24 hours after oral gavage dosing (80 mg/Kg, dose volume 5 mL/Kg). Each animal was sampled on each day at a maximum of two alternating time points.
Samples were transferred into tubes containing K3EDTA as anticoagulant, centrifuged, and stored at -80 °C. […] Sample preparation for HPLC-MS analysis.
A volume of 50 µL of caffeine solution (1 mg/L in water-methanol 1:1) were added to plasma sample aliquots (50 µL); after the addition of the precipitant solution (100 µL of 10% ice-cold trichloroacetic acid in water), samples were centrifuged at 13,000 rpm for ten minutes and the supernatant injected onto the HPLC system (see supporting information for chromatographic conditions). If the levels of analytes were over range, plasma samples were preventively diluted with blank plasma.
Quantification of doxophylline and its deuterated analogues d4 and d7 as well as their main metabolites, 7-theophylline acetic acid (T-COOH), 7-hydroxyethyl theophylline (Eto) and theophylline, was performed by using the calibration curves obtained with the corresponding working standards of the analytes and using caffeine as internal standard.
The pharmacokinetic parameters for doxophylline and its deuterated analogues were calculated by plotting the plasma concentration curves versus time obtained from the average values of three animals, using PK Solver

Row | level of metabolite etophylline 7 versus doxophylline | plasmatic level of metabolite theophylline 1 versus doxophylline | level of dehydrogenated metabolite dh-doxophylline 10 versus doxophylline (peak area) | plasmatic level of metabolite dm-doxophylline 9 versus doxophylline (peak area) | levels of all metabolites except dm-doxophylline 9 versus doxophylline (semiquantitative determination) | SMILES
1 | decreased level | significant increase | decrease | significant increase |  | [2H]C1([2H])OC(Cn2cnc3c2c(=O)n(C)c(=O)n3C)OC1([2H])[2H] [d4-doxophylline]
2 |  |  |  |  | diminished levels | [2H]C1([2H])OC([2H])(C([2H])([2H])n2cnc3c2c(=O)n(C)c(=O)n3C)OC1([2H])[2H] [d7-doxophylline]
